Results published in ChEMBL document CHEMBL6120985, “Discovery of a potent PARP1 PROTAC as a chemosensitizer for the treatment of colorectal cancer” (Eur J Med Chem, 2025).
The source made the active and inactive calls. The calls are words filed in the database; no cut-off is given here.

Columns and labels:
[1] = target: T1, Protein cereblon/Poly [ADP-ribose] polymerase 1 (Homo sapiens, UniProt P09874+Q96SW2); assay: PROTAC activity at CRBN/PARP1 in human HCT-116 cells assessed as degradation of PARP1; assay type: cell-based
Target sequence in this assay (P09874 whole entry): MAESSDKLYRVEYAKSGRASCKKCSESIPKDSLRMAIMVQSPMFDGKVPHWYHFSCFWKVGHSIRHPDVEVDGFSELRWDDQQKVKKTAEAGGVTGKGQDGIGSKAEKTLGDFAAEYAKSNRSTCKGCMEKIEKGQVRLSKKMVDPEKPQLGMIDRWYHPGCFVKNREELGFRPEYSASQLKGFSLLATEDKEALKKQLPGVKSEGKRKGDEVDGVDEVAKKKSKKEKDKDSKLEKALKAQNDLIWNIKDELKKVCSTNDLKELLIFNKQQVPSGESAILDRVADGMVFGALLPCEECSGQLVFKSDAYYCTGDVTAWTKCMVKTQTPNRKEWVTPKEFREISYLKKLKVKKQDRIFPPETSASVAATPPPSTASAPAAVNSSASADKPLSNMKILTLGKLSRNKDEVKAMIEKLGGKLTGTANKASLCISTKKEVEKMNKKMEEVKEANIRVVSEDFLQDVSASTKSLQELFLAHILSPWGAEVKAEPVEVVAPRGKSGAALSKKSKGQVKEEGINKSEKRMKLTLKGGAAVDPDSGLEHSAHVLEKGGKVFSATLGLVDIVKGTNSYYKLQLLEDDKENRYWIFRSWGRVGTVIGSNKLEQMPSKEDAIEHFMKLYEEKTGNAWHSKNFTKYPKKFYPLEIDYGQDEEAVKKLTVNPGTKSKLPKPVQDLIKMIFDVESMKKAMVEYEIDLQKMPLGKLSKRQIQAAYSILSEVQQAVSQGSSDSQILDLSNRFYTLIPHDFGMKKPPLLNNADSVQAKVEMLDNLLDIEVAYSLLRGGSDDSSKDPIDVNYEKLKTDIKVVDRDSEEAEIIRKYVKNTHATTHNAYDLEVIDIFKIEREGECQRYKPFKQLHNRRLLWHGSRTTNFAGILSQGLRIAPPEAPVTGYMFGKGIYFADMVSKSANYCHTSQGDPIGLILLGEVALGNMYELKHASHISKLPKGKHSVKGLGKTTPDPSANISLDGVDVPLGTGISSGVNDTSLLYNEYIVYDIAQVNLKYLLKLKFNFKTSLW
Target sequence in this assay (Q96SW2 whole entry): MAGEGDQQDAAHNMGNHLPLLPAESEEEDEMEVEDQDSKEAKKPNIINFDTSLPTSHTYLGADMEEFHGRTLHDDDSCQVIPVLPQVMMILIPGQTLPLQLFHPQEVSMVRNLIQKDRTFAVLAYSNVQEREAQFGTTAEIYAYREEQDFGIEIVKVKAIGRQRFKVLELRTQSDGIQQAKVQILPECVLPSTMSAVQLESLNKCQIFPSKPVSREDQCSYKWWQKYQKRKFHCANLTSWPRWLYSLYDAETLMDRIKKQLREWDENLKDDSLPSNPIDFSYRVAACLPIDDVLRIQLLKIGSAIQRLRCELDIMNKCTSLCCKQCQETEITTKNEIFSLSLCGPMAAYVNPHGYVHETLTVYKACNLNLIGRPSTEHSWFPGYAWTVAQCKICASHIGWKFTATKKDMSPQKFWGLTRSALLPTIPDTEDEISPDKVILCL

[2] = target: T1, Protein cereblon/Poly [ADP-ribose] polymerase 1; assay: PROTAC activity at CRBN/PARP1 in human HCT-116 cells assessed as maximum degradation of PARP1 relative to control; assay type: cell-based
Target sequence in this assay (P09874 2-1014 limits assumed): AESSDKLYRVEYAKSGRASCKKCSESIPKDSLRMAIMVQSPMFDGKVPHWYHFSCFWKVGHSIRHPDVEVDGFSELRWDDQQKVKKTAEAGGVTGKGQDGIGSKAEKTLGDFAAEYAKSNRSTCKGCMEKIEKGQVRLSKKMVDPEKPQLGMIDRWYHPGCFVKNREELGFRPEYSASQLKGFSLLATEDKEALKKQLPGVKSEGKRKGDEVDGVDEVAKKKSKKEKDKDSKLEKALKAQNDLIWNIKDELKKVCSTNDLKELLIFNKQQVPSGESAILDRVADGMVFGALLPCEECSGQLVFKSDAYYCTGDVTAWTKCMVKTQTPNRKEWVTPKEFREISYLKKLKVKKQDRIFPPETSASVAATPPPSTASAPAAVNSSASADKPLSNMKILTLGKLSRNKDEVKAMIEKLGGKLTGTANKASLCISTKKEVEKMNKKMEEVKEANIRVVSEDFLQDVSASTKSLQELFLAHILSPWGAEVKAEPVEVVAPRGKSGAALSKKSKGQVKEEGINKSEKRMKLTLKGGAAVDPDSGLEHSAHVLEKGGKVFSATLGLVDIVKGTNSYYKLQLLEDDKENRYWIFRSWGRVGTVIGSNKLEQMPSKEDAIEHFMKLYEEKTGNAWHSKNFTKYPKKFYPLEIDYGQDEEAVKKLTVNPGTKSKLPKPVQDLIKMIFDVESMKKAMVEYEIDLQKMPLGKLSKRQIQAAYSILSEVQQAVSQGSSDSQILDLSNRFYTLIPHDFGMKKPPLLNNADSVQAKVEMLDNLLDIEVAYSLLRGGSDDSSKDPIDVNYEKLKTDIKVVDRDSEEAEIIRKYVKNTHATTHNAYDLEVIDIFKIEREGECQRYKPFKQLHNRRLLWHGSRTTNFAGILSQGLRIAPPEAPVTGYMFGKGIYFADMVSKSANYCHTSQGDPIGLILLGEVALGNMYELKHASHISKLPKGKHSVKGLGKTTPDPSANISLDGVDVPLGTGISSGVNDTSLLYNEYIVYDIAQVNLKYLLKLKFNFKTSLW
Target sequence in this assay (Q96SW2 whole entry partner): as the sequence (Q96SW2 whole entry) above

[3] = target: T1, Protein cereblon/Poly [ADP-ribose] polymerase 1; assay: PROTAC activity at CRBN/PARP1 in human HCT-116 cells assessed as decrease in PARP1 level at 1 uM measured after 4 hrs; assay type: cell-based
Target sequence in this assay (P09874 2-1014 limits assumed): as the sequence (P09874 2-1014 limits assumed) above
Target sequence in this assay (Q96SW2 whole entry partner): as the sequence (Q96SW2 whole entry) above

[4] = target: T1, Protein cereblon/Poly [ADP-ribose] polymerase 1; assay: PROTAC activity at CRBN/PARP1 in human HCT-116 cells assessed as degradation of PARP1 measured after 24 hrs; assay type: cell-based
Target sequence in this assay (P09874 whole entry): as the sequence (P09874 whole entry) above
Target sequence in this assay (Q96SW2 whole entry): as the sequence (Q96SW2 whole entry) above

[5] = target: T1, Protein cereblon/Poly [ADP-ribose] polymerase 1; assay: PROTAC activity at CRBN/PARP1 in human RKO cells assessed as degradation of PARP1 measured after 24 hrs; assay type: cell-based
Target sequence in this assay (P09874 whole entry): as the sequence (P09874 whole entry) above
Target sequence in this assay (Q96SW2 whole entry): as the sequence (Q96SW2 whole entry) above

[6] = target: T1, Protein cereblon/Poly [ADP-ribose] polymerase 1; assay: PROTAC activity at CRBN/PARP1 in human RKO cells assessed as degradation of PARP1 at upto 10 uM measured after 24 hrs relative to control; assay type: cell-based
Target sequence in this assay (P09874 2-1014 limits assumed): as the sequence (P09874 2-1014 limits assumed) above
Target sequence in this assay (Q96SW2 whole entry partner): as the sequence (Q96SW2 whole entry) above

[7] = target: Protein cereblon/Poly [ADP-ribose] polymerase 2 (Homo sapiens, UniProt Q9UGN5+Q96SW2); assay: PROTAC activity at CRBN/PARP2 in human HCT-116 cells assessed as degradation of PARP2; assay type: cell-based
[8] = test system: SW-620; assay: Cytotoxicity against human SW620 cells assessed as inhibition of cell growth measured after 72 hrs by CCK-8 method; assay type: functional, cell-based; conditions: SW-620, 72 h
[9] = Cytotoxicity against HEK293T cells assessed as inhibition of cell growth measured after 72 hrs by CCK-8 method; assay type: toxicity, cell-based, HEK-293T; conditions: human
[10] = Cytotoxicity against human BEAS-2B cells assessed as inhibition of cell growth measured after 72 hrs by CCK-8 method; assay type: toxicity, cell-based
[11] = test system: HCT-116; assay: Synergistic antiproliferative activity against human HCT-116 cells assessed as combination index at 0.5 uM measured after 72 hrs in presence of 0.625 nM of SN-38 by CCK-8 method; assay type: functional
[12] = test system: HCT-116; assay: Synergistic antiproliferative activity against human HCT-116 cells assessed as combination index at 0.5 uM measured after 72 hrs in presence of 2.5 nM of SN-38 by CCK-8 method; assay type: functional
[13] = test system: HCT-116; assay: Synergistic antiproliferative activity against human HCT-116 cells assessed as combination index at 0.5 uM measured after 72 hrs in presence of 10 nM of SN-38 by CCK-8 method; assay type: functional
[14] = test system: HCT-116; assay: Synergistic antiproliferative activity against human HCT-116 cells assessed as combination index at 1 uM measured after 72 hrs in presence of 1.25 nM of SN-38 by CCK-8 method; assay type: functional
[15] = test system: HCT-116; assay: Synergistic antiproliferative activity against human HCT-116 cells assessed as combination index at 1 uM measured after 72 hrs in presence of 10 nM of SN-38 by CCK-8 method; assay type: functional
[16] = test system: HCT-116; assay: Antagonistic antiproliferative activity against human HCT-116 cells assessed as combination index at 2 uM measured after 72 hrs in presence of 1.25 nM of SN-38 by CCK-8 method; assay type: functional
[17] = test system: HCT-116; assay: Synergistic antiproliferative activity against human HCT-116 cells assessed as combination index at 4 uM measured after 72 hrs in presence of 0.625 nM of SN-38 by CCK-8 method; assay type: functional
[18] = test system: HCT-116; assay: Synergistic antiproliferative activity against human HCT-116 cells assessed as combination index at 4 uM measured after 72 hrs in presence of 5 nM of SN-38 by CCK-8 method; assay type: functional
[19] = test system: HCT-116; assay: Induction of apoptosis in human HCT-116 cells assessed as viable cells at 1 uM measured after 72 hrs by annexin V/FITC and PI staining based flow cytometry analysis (reference value: 89.6%); assay type: functional; conditions: read-out: Activity
[20] = test system: HCT-116; assay: Induction of apoptosis in human HCT-116 cells assessed as early apoptotic cells at 1 uM measured after 72 hrs by annexin V/FITC and PI staining based flow cytometry analysis (reference value: 3.43%); assay type: functional
[21] = test system: HCT-116; assay: Induction of apoptosis in human HCT-116 cells assessed as late apoptotic cells at 1 uM measured after 72 hrs by annexin V/FITC and PI staining based flow cytometry analysis (reference value: 6.80%); assay type: functional
[22] = test system: HCT-116; assay: Induction of apoptosis in human HCT-116 cells assessed as late apoptotic cells at 1 uM measured after 72 hrs in presence of SN-38 by annexin V/FITC and PI staining based flow cytometry analysis (reference value: 6.80%); assay type: functional
[23] = test system: HCT-116; assay: Induction of apoptosis in human HCT-116 cells assessed as necrotic cells at 1 uM measured after 72 hrs by annexin V/FITC and PI staining based flow cytometry analysis (reference value: 0.16%); assay type: functional
[24] = test system: HCT-116; assay: Induction of apoptosis in human HCT-116 cells assessed as necrotic cells at 1 uM measured after 72 hrs in presence of SN-38 by annexin V/FITC and PI staining based flow cytometry analysis (reference value: 0.16%); assay type: functional
[25] = test system: HCT-116; assay: Induction of cell cycle arrest in human HCT-116 cells assessed as accumulation of cells at G2/M phase at 1 uM measured after 72 hrs in presence of SN-38 by PI staining based flow cytometry analysis; assay type: functional
[26] = test system: HCT-116; assay: Effect on BRCA level in human HCT-116 cells at 1 uM in presence of SN-38 by Western blot analysis; assay type: functional, cell-based
[27] = test system: HCT-116; assay: Downregulation of HSPA2 level in human HCT-116 cells at 1 uM in presence of SN-38 by KEGG enrichment analysis; assay type: functional, cell-based
[28] = test system: HCT-116; assay: Downregulation of KRT1 level in human HCT-116 cells at 1 uM in presence of SN-38 by KEGG enrichment analysis; assay type: functional, cell-based
[29] = test system: HCT-116; assay: Upregulation of ATP5PD level in human HCT-116 cells at 1 uM in presence of SN-38 by KEGG enrichment analysis; assay type: functional, cell-based
[30] = test system: HCT-116; assay: Upregulation of HMCN1 level in human HCT-116 cells at 1 uM in presence of SN-38 by KEGG enrichment analysis; assay type: functional, cell-based
[31] = test system: HCT-116; assay: Effect on BRCA protein level in human HCT-116 cells at 1 uM in presence of SN-38 by Western blot analysis; assay type: functional, cell-based
[32] = test system: HCT-116; assay: Effect on Rad51 protein level in human HCT-116 cells at 1 uM in presence of SN-38 by Western blot analysis; assay type: functional, cell-based
[33] = test system: HCT-116; assay: Effect on p53 protein level in human HCT-116 cells at 1 uM in presence of SN-38 by Western blot analysis; assay type: functional, cell-based
[34] = test system: HCT-116; assay: Effect on DNA-PKcs protein level in human HCT-116 cells at 1 uM in presence of SN-38 by Western blot analysis; assay type: functional, cell-based
[35] = test system: HCT-116; assay: Effect on Ku70 protein level in human HCT-116 cells at 1 uM in presence of SN-38 by Western blot analysis; assay type: functional, cell-based
[36] = test system: HCT-116; assay: Downregulation of […] level in human HCT-116 cells at 1 uM in presence of SN-38 by Western blot analysis; assay type: functional, cell-based
[37] = test system: HCT-116; assay: Upregulation of CHK1 level in human HCT-116 cells at 1 uM in presence of SN-38 by Western blot analysis; assay type: functional, cell-based

Sequence of Protein cereblon/Poly [ADP-ribose] polymerase 2 (Q9UGN5 whole entry): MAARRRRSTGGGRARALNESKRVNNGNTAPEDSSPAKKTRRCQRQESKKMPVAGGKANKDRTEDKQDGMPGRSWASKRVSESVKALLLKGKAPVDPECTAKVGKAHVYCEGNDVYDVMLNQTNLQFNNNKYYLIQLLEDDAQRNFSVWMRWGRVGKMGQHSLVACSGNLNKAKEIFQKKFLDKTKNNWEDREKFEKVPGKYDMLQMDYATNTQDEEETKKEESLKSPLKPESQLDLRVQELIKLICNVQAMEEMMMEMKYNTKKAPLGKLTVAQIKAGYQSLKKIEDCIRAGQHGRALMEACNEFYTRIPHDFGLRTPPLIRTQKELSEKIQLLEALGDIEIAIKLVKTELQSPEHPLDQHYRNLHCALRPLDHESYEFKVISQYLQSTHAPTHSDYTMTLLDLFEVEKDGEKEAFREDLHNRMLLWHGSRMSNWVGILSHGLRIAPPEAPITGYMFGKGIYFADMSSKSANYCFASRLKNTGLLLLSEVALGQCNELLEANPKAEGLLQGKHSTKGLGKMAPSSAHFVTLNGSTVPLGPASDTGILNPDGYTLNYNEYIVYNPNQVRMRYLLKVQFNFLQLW
Sequence of Protein cereblon/Poly [ADP-ribose] polymerase 2 (Q96SW2 whole entry): as the sequence (Q96SW2 whole entry) above

In the case of NC(=O)c1cccc2cn(-c3ccc([C@@H]4CCCN(CCC5CCN(CCC6CCN(CC7CCN(c8ccc9c(c8)C(=O)N(C8CCC(=O)NC8=O)C9=O)CC7)CC6)CC5)C4)cc3)nc12 (some centres not stated), the DC50 [1] is reported as 0.03 µM, the Emax [2] is reported as 86.2% and the Activity [3] is reported as “Active”. The DC50 [4] was 0.0581 µM, the DC50 [5] was 0.161 µM and the Emax [6] was 95.9%. The DC50 [7] was 19.1 µM, the IC50 [8] was 1.63 µM and the IC50 at 72 h [9] was 4.13 µM. The IC50 at 72 h [10] was 8.29 µM, the CI [11] was 0.967 and the CI [12] was 0.879. For the same compound, the CI [13] was 0.753, the CI [14] was 0.969 and the CI [15] was 0.698. The CI [16] was 1.092, the CI [17] was 0.567 and the CI [18] was 0.457. It also gave a viability at 1 µM [19] of 83.6%, an Activity [20] of 4.03% and an Activity [21] of 10.4%. It also gave an Activity [22] of 19.7%, an Activity [23] of 2.01% and an Activity [24] of 10.2%. The Activity [25] was “Active”, the Activity [26] was “inactive” and the Activity [27] was “Active”. The Activity [28] was “Active”, the Activity [29] was “Active” and the Activity [30] was “Active”. For the same compound, the Activity [31] was “inactive”, the Activity [32] was “inactive” and the Activity [33] was “inactive”. For the same compound, the Activity [34] was “inactive”, the Activity [35] was “inactive” and the Activity [36] was “Active”. The Activity [37] was “Active”.
